Data published in patent US11564911B2, “Small molecule dual-inhibitors of TRPV4 and TRPA1 for sanitizing and anesthetizing” (Duke University, priority 2016, dated 2023).

How the values were obtained:
TRPV4 = TRPV4 (Rattus norvegicus, UniProt Q9ERZ8); test: Ca++ imaging in primary astrocytes, GSK101 stimulation; type: cell-based; conditions: 5 nM GSK101
Procedure: FIGS. 28A-28B: Compound 16-8 inhibits TRPV4 in I° cells more potently than GSK205. […] Inset: Chondrocytes responding to activation with GSK101, fura-2 Ca++ imaging; right-hand image taken at 5 sec after GSK101 application. […] (FIG. 28B) 1° (primary) astrocytes (rat); dose-response comparison between 16-8 and GSK205 in response to 5 nM GSK101. Inset: Astrocytes responding to activation with GSK101; right-hand image taken at 5 sec after GSK101 application (mean±SEM, n=5 independent expts, 200 cells/expt; *p<0.05, t-test).
Astrocyte cultures were conducted following established protocols^64-66. Astrocytes were prepared from Sprague Dawley rat embryos (E18). Briefly, the isolated cortices were minced, and then incubated with trypsin and DNase. Dissociated cells were suspended in Dulbeccco's Modified Eagle's Medium (DMEM) supplemented with 10% fetal calf serum and penicillin/streptomycin (100 U/ml and 100 μg/ml, respectively). Thereafter, cell sus-pensions were plated in 75 cm^2 tissue culture flasks (10×10^6 cells/flask) which were pre-coated with poly-L-lysine (10 μg/ml). The cells were maintained in a […] incubator at 37° C.

[1] = UVB permeation of foot-pad skin; design: species or system mouse; conditions: topically applied, vs vehicle
Procedure: The UV LED was powered with 20 mA of current, resulting in 500 μW of optical power in a circular focal spot 1.5 mm in diameter, with 70% of the total flux in a 0.5 mm beam radius. The UV optical power transmitted through the sample was detected by a Hamamatsu S127-66BR UV detector, and the output of the photodetector was measured using a Keithley 236 source measure unit. Next, the foot-pad epidermis of a mouse was measured for UV transmission by placing it on a quartz coverslip and exposure to the UV beam. The vehicle-control group was treated with the alcohol and glycerol solution only. Another control group consisted of a commercially-available SPF100 preparation sunscreen in form of a cream, which was applied similar to the vehicle-control. The data for the GSK205 and sunscreen was normalized to this control data.

[2] = test system: mice, UVB-exposed hind paws; test: UVB-evoked nocifensive behavior after topical GSK205 (Hargreaves, von Frey); type: in vivo, mouse
Procedure: Behavioral tests were performed to evaluate the decrease in withdrawal thresholds in response to mechanical von Frey hair or thermal stimuli applied to hind paws. […]. These withdrawal thresholds were ascertained before and after UV exposure. Mice were exposed using a Bio Rad Gel Doc 2000 UV transilluminator (302 nm) for 5 minutes with an exposure of 600 mJ/cm^2, 3-5 days after the last application of tamoxifen/oil.
GSK205 topical treatment: A viscous solution of 68% EtOH/5% glycerol plus 1 mM or 5 mM GSK205 (none for control) was applied to hindpaws by rubbing in 20 μL, applied at time-points 1 hour and again 10 min before UV exposure.
Behavioral tests were performed to evaluate the decrease in withdrawal thresholds in response to mechanical or thermal stimuli applied to hind paws. These withdrawal thresholds were ascertained before and after UVB exposure. Mice were confined by plexi-glass enclosures on top of 25×26 cm Bio Rad Gel Doc 2000 UV transilluminator (302 nm), and otherwise allowed to openly explore this environment. UV-exposure lasted for 5 minutes with an exposure of 600 mJ/cm^2.
Hindpaw mechanical withdrawal thresholds were determined by the automated von Frey hair method, using a 0.5 mm diameter stainless steel filament, part of an automated plantar touch stimulator (Ugo Basile, Modena, Italy). Relevant detail included pre-test acclimatization in a quiet room for 30 min, conducting the test at the same time of day and blinded observers. The stimulus was delivered to the hindpaw, automatically discontinued upon withdrawal, and its intensity recorded automatically. 6-8 trials per animal were conducted, with equal exposure of both hindpaws, leading to an average withdrawal threshold. Results are reported as […], which was calculated by subtracting post-treatment from pre-treatment measurements, expressed as % or relative to 1.0.
Hindpaw thermal (hot) withdrawal thresholds were determined by the well-established Hargreaves' method, using an infra-red thermal stimulation device that delivers the stimulus from underneath the hindpaw combined with automatic shut-off upon withdrawal (Ugo Basile). Stimulation and measurements were conducted as described for von Frey hair testing. A cutoff of 20 sec was set to prevent tissue damage.

[3] = test system: primary mouse keratinocytes (1° MK); test: ET1 immunocytochemistry in UVB-exposed primary mouse keratinocytes; type: cell-based; conditions: 295 nm UVB-LED
Procedure: 1° MK were exposed to UVB using the UV optical system (295 nm LED). 24 hours later the cells were fixed and fluorescently immunolabeled for ET1. Digital images were captured and subjected to morphometry.
Mouse keratinocytes were cultured on collagen coated quartz coverslips and then stimulated from the bottom using the previously mentioned UV optical system using the 295 nm LED. 24 hours later the cells were fixed in 4% formaldehyde in PBS for 20 minutes, permeabilized with 0.1% Triton X-100 in PBS for 10 minutes, washed, then blocked in 10% normal goat serum in PBS for 45 minutes. Coverslips were incubated overnight with primary antibody mouse anti-ET1 (1:200; Abcam), washed three times in PBS and incubated with secondary antibody for 2 hours at 25° C. Coverslips were washed three times in PBS, once with double-distilled H2O. Digital images were captured using a 40× immersion lens on the BX61 Olympus upright microscope. Morphometric analysis was conducted using ImageJ freeware with tailored regions-of-interest.

TRPV4, sequence (Q9ERZ8 whole entry): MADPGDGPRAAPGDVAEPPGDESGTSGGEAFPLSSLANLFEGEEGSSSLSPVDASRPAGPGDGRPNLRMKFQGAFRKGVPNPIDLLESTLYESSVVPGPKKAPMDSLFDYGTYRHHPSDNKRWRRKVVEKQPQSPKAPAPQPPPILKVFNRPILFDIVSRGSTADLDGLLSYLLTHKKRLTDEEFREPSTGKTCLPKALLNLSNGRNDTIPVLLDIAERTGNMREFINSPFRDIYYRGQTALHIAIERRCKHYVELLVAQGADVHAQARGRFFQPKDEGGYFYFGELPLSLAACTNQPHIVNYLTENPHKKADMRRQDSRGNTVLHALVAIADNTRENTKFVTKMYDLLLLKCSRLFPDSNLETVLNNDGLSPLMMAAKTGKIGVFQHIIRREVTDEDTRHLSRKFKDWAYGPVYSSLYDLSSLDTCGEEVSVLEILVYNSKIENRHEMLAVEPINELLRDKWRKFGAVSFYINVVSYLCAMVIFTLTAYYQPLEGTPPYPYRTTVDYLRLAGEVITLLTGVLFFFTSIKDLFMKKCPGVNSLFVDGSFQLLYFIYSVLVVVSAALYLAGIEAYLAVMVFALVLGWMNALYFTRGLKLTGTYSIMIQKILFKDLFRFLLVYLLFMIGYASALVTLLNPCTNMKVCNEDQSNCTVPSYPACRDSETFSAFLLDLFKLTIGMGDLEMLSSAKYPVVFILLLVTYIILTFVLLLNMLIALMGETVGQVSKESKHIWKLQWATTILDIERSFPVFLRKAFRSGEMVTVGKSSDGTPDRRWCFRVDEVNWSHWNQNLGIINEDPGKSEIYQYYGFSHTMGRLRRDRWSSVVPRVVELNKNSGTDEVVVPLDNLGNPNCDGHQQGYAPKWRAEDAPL

| SMILES | potency versus GSK205, dose-response of peak ΔCa++ (TRPV4) | UVB permeation of paw-pad skin [1] | delay in thermal hypersensitivity after UVB ([2]; topical 1 mM GSK205, WT mice) | off-target effects on withdrawal behavior ([2]; topical 5 mM GSK205, Trpv4−/− mice vs vehicle) | sensitivity to von Frey hair mechanical stimulation after UVB ([2]; topical 5 mM GSK205, WT mice) | thermally-evoked nocifensive behavior after UVB ([2]; topical 5 mM GSK205, WT mice) | ET1 immunoreactivity in UVB-exposed 1° MK [3] |
| --- | --- | --- | --- | --- | --- | --- | --- |
| CN(CCc1ccc(Nc2nc(-c3ccccc3)cs2)cc1)Cc1ccccc1 [Compound 16-8] | significantly increased potency | – | – | – | – | – | – |
| CN(CCc1ccc(Nc2nc(-c3cccnc3)cs2)cc1)Cc1ccccc1 [GSK205] | – | equal UVB permeation | ~24 h | did not elicit off-target effects | significantly reduced sensitivity | sustained attenuation | significant down-regulation |
